A melting point compilation (Tetko et al.; mined from patent text by program, amines drawn as free bases though some values may be those of a salt)

Row | SMILES | melting point [°C]
1 | Cn1nc(-c2ccccc2O)oc1=O | 160 to 162
2 | CC1CNc2c(cnc3cc(Cl)ccc23)O1 (stereo not given) | 239 to 241
3 | COc1cc(OC(C)C)cc2oc(Sc3ccc(O)cc3)cc(=O)c12 | 263 to 265
4 | CCn1nc(C(=O)NC2CN(C)CCN(C(=O)c3ccccc3)C2)c2ccccc21 (stereo not given) | 100 to 103
5 | COc1ccc(-c2c(Cl)c(CN3C(=O)CCC3=O)nc3sc4c(c23)CC(C)(C)C(OCc2ccccc2)C4)cc1 (stereo not given) | 221 to 223
6 | O=C(Nc1ccc(C(F)(F)F)cc1)N1CC(c2ccccc2)C(c2ccc(Cl)cc2)N1 (stereo not given) | 212 to 214
7 | COc1cc(C(=O)N2Cc3ccc(C(=O)NCc4ccc(C)cc4C)n3Cc3ccccc32)ccc1-c1ccccc1C | 161 to 162
8 | O=C1N(N2CCCCC2)c2ccccc2C1(O)Cc1ccncc1 (stereo not given) | 156 to 158
9 | CCCCS(=O)(=O)NC(Cc1ccc(N2CCN(CCC3CCN(C(=O)OC(C)(C)C)CC3)C2=O)cc1)C(=O)OC (stereo not given) | 124 to 126
10 | CC(C)c1ccc(-c2ccnc(-c3cccc(C(=O)O)c3)c2)cc1 | 233 to 234
11 | CCCNC(=O)c1cc2ccc(OC)cc2n1CCNC(C)=O | 127 to 128
12 | CCCc1cc(C)c(OCCO)c(C(Nc2ccc(C(=N)N)cc2)C(=O)O)c1 (racemic) | 230
13 | NCc1ccc2c(c1)c(C1CCN(CCN3CCNC3=O)CC1)cn2-c1ccc(F)cc1 | 171 to 175
14 | CC(C)(CO)n1c(Cc2ccccc2)nc2c(Cl)nc3ccccc3c21 | 262 to 266
15 | Cc1nc2c3c(c(C(=O)N(C)C)cc2n1C)CCC(c1ccccc1)N3 (stereo not given) | 167 to 170
16 | COc1ccc(Cn2cnc3c(-c4ccco4)nc(SC)nc32)cc1 | 147 to 148
17 | CC(C)(C)OC(=O)NC1C=CCC2C(=O)NC(=O)C12 (stereo not given) | 158 to 160
18 | O=C(c1cc(N2CCCCC2)ccn1)N(O)CCCc1ccccc1 | 125 to 130
19 | CCOC(=O)Nc1ccc2c(c1)c(N)nn2C(=O)OCC | 173 to 174
20 | O=C(Nc1ccc(OCc2ccncc2)c2ccccc12)c1cc(F)cc(N2CCCCC2)c1 | 69 to 71
21 | O=C1c2ccccc2C(=O)c2c1ccc(C(=O)O)c2[N+](=O)[O-] | 284 to 286
22 | CC(=O)OCc1c(C(=O)C(=O)O)c2cc(OCc3ccccc3)ccc2n1Cc1ccc(C(C)(C)C)cc1 | 145 to 146
23 | CN(N)c1nc(C(F)(F)F)nc2ccccc12 | 130 to 132
24 | CCCCc1nc2c(N)nc3c(c2n1CCNC(=O)c1cc(C(C)(C)C)c(O)c(C(C)(C)C)c1)NCCC3 | 208 to 210

Row | SMILES | melting point [°C]
25 | CC(C)(C)C(=O)CC(Sc1ccccc1)c1ccc(Cl)cc1 (stereo not given) | 127 to 128
26 | O=C(O)COc1cc(F)ccc1C(=O)NCc1ccc(Br)cc1F | 143 to 145
27 | CC(C)(C(=O)O)c1cc(C(=O)c2ccccc2)ccc1O | 207
28 | OC1CCCCC1Oc1ccc(Oc2ccccc2)cc1 (stereo not given) | 103 to 105
29 | CC1CCC(=O)CC1S(=O)(=O)c1ccccc1 (stereo not given) | 71 to 74
30 | O=C(CNc1ccccc1)Nc1ccc(F)cc1C(=O)O | 194 to 195
31 | Cc1cc(NC(=O)C2=C(O)c3ccc4ccccc4c3S(=O)(=O)N2C)no1 | 253
32 | Cc1cc(C#N)cc(C(=O)Nc2cccc(C(F)(F)F)c2)n1 | 167
33 | COCc1nc2cccc(C(=O)O)c2n1Cc1ccc(-c2ccccc2-c2nnn[nH]2)cc1 | 272 to 274
34 | CC(C)Cc1nnc2n1-c1ccc(Br)cc1C(c1ccccc1)=NC2 | 93 to 95
35 | CO[C@@H]1CN(CCCNc2nccc(=O)[nH]2)CC[C@@H]1NC(=O)c1cc(Cl)c(N)c2c1OC(C)(C)C2 | 164
36 | CCCCC(CC)COC(=O)C=CC(=O)NC(N)=O (stereo not given) | 73 to 76
37 | COc1ccc2c(ccn2CC2(c3ccccc3Br)OCCO2)n1 | 143 to 144
38 | CC(C)(C)OC(=O)/C(=C/c1ccccc1)C(=O)c1ccccc1O | 109 to 110
39 | FC(F)(F)c1ccc(CN2CC3(COc4ccc(-c5ccncc5)cc43)c3ccccc32)o1 (stereo not given) | 108 to 110
40 | CC1(C)CCC(C)(C)c2cc(-c3cc(-c4ccc(C(=O)O)cc4)ccc3OCCCCO)ccc21 | 235
41 | Nc1c(F)c(Oc2ccc(Cl)c(Cl)c2)nc(C(=O)O)c1Cl | 156 to 160
42 | CCOc1nc(OCC)c([N+](=O)[O-])c(N2CCS(=O)CC2)n1 | 130 to 132
43 | O=C(O)C(=O)NC1CCCCCCC1 | 115 to 116
44 | CCCCN(C=NC1=C(C(=O)OCC)C(c2ccccc2Cl)C(C(=O)OCC)=C(C)N1)CCCC (stereo not given) | 126
45 | CC(=O)OC1CCC2(C)C(CCC3=C4C(=O)CC(C(C)CCCC(F)(C(F)(F)F)C(F)(F)F)C4(C)CCC32)C1 (stereo not given) | 187 to 188
46 | Nc1c(F)c(N2CCC(C3(N)CCC3)C2)c(F)c2c1c(=O)c(C(=O)O)cn2[C@@H]1C[C@@H]1F (stereo not given in full) | 133 to 139
47 | Cc1ncc([N+](=O)[O-])n1C(=O)Nc1ccccc1 | 218 to 220
48 | COc1nc(C)cc2nc(S(=O)(=O)Nc3nn(C)c4ccccc34)nn12 | 181 to 183

Row | SMILES | melting point [°C]
49 | O=Cc1ccc(OCCn2ncc3ccccc3c2=O)cc1 | 104 to 106
50 | CC(C)C(NC(=O)OC(C)(C)C)N1CC(NC(=O)Cc2ccccc2)C1=O (stereo not given) | 64 to 66
51 | COc1ccc(Cn2ncc3c4c(cnc32)CN(C(=O)Nc2ccccc2)CC4)cc1 | > 65
52 | CCCCCCCCCCCCCCC(=O)NC1CC(C)(C)N(CC#N)C(C)(C)C1 | 101
53 | O=c1[nH]c2cc(Cl)cc(Cl)c2c(O)c1Sc1ccccc1Br | 285 to 288
54 | O=Cc1cnc(-c2ccc(C(CC3CCOCC3)c3ccc(S(=O)(=O)C4CC4)cc3)[nH]2)s1 (stereo not given) | 175 to 176
55 | ClCc1cnc(Cl)cc1Cl | 55 to 56
56 | CC(=O)OCC1=C(C(=O)OC(c2ccccc2)c2ccccc2)N2C(=O)C(NC(=O)Cc3csc(-c4c(O)cccc4O)n3)C2SC1 (stereo not given) | 144 to 146
57 | Cn1c(C(=O)O)c(Oc2ccc(Cl)cc2N)c2ccccc21 | 204 to 206
58 | O=C(Cc1csc(-c2c(O)cccc2O)n1)NC1C(=O)N2C(C(=O)OC(c3ccccc3)c3ccccc3)=CCSC12 (stereo not given) | 164 to 166
59 | C=C(Cl)C[C@@H](CC(=O)N(CC(=O)N(C)CCc1ccccn1)CC1CCCCC1)C(=O)N[C@@H](CC1CCCCC1)[C@@H](O)[C@@H](O)CC(C)C | 140
60 | CCOc1c(-c2ccc(N(C)C)c(O)c2)c(=O)c1=O | > 182
61 | CCOC(=O)c1cn(Cc2ccc(Oc3ccccc3)cc2)nc1OCc1nc(-c2ccccc2)oc1C | 96 to 97
62 | Cc1nc(-n2cnn(Cc3ccc(F)cc3)c2=O)sc1C(=O)NCc1cn(C)cn1 | 225 to 226
63 | NC(=O)C1CCc2c(C(=O)c3cccs3)cccc21 (stereo not given) | 164 to 166
64 | CCOP(=O)(OCC)c1c(-c2c(OC)ccc3ccccc23)c(C)c2c(c1-c1ccccc1)COC2 | 54.1 to 56
65 | COc1cc(OC)c(F)c(N2Cc3cnc(NC[C@H](O)[C@@H](O)CO)nc3N(C3CCCC3)C2=O)c1 | 86 to 88
66 | COCCNC(=O)c1cc(-c2cccc3cc(Cc4cccc(C(F)(F)F)c4)sc23)ccc1F | 94 to 95
67 | Cc1cc2nc3c4cc([N+](=O)[O-])ccc4n(CCN(C)C)c3nc2cc1C | 219
68 | CCOC(=O)c1ccc(NC(=O)CCc2ccc(Cl)cc2)cc1 | 163 to 165
69 | O=C(N[C@H]1CC[C@H](CCN2CCN(c3nccc4c3OCC4)CC2)CC1)C(F)(F)F | 198
70 | O=C(O)c1cccc(C=CC(=O)c2ccccc2)c1 | 198 to 201
71 | CN(C)/C=C/C(=O)c1ccc(C(F)(F)F)cc1 | 96.5 to 98
72 | CC(=O)Cn1c(Oc2ccc(-n3c4ncccc4n4ccnc34)cc2)nc2ccccc21 | 189 to 192

Row | SMILES | melting point [°C]
73 | CC(C)NC(=O)c1nc(Cl)c(Cl)[nH]1 | 150
74 | Cc1cn(C2OC(COC(=O)c3ccccc3)C(OC(=O)c3ccccc3)C2F)c(=O)[nH]c1=O (stereo not given) | 120 to 122
75 | O=C(Nc1cc2nc(-c3ccc(C(=O)C4CCCCCC4)cc3)[nH]c2cn1)C1CCCCCC1 | 194
76 | CC(C)N(CCc1c[nH]c2cc(Cl)ccc12)Cc1cccc(OCC(F)(F)C(F)(F)F)c1 | 77 to 80.2
77 | CCCc1c(O)c(Cl)cc(C(=O)OC)c1O | 75 to 76
78 | O=C(O)c1nc2n(n1)-c1cccnc1N(C1CCCCC1)C2 | 170 to 176
79 | COCC(=O)Nc1cccc(C2(c3ccncc3)N=C(N)N(C)C2=O)c1 (stereo not given) | 92 to 93
80 | COCC(=O)Nc1ccc(C2=NNC(=O)C3CC23)cc1 (stereo not given) | 206
81 | O=C1CCC(N2C(=O)c3cccc(CNC(=O)c4cccc(Br)n4)c3C2=O)C(=O)N1 (stereo not given) | 181 to 183
82 | Cc1cncn1-c1cc(N)cc(C(F)(F)F)c1 | 131 to 133
83 | Fc1ccc(C=Nc2c3c(nc4ccccc24)CCCC3)cc1 | 161 to 163
84 | CCCC(=O)NN(C(=O)C(=O)NN)C(=O)c1ccccc1 | 254
85 | CC(=O)C(O)C1OC(Sc2ncc(Cl)cn2)C(O)(C(C)=O)C(O)(C(C)=O)C1(O)C(C)=O (stereo not given) | 172
86 | Brc1ccc2sc(-c3ccccc3)c(N3CCN(Cc4ccccc4)CC3)c2c1 | 156 to 157
87 | Cc1ccc(C2=NNC(=O)Cc3cc4c(cc32)OCO4)cc1 | 222 to 224
88 | C#CCOc1ccc2c(c1)c(-c1ccc(C(C)C)cc1)nc(=O)n2Cc1cccc(O)c1 | 230
89 | CCCc1nc2c(N)nc3cc(Oc4ccc(C#N)cc4)ccc3c2n1CC(C)C | 223 to 225
90 | C=Cn1cc(C(=O)O)c(=O)c2cc(F)c(N3CCNCC3)cc21 | 248 to 251
91 | CS(=O)(=O)c1ccc(C(CC2CCCC2)c2nc(F)c(C(=O)C3CC3)[nH]2)cc1 (stereo not given) | 160 to 162
92 | CN(NC(=O)c1c(Cl)cccc1Cl)S(=O)(=O)c1ccccc1 | 177 to 178
93 | O=C(O)c1ccc2nc(-c3ccc(F)cc3)[nH]c(=O)c2c1 | 397 to 399
94 | CC1CCN(C(=O)C(C)Oc2ccc(Oc3ccc(C(F)(F)F)cn3)cc2)O1 (stereo not given) | 94 to 97
95 | CCN(CC(C)Nc1c(C)cccc1C)C(C)=O (stereo not given) | 58 to 60
